# According to ChEMBL document CHEMBL5154904, “Discovery and Structural Basis of the Selectivity of Potent Cyclic Peptide Inhibitors of MAGE-A4” (J Med Chem, 2022):
# Positions count from the first letter of the chain named. Active and inactive are the calls of the source. The calls are words filed in the database; no cut-off is given here. Positions of bridges follow the written chain, without caps; N, C: chain ends. Residues, ends and D or L forms follow the SMILES beside them.
# Columns and labels:
# [1] = biological target: T1, Melanoma-associated antigen 4 (Homo sapiens, UniProt P43358); assay: Binding affinity to recombinant N-terminal His-tagged MAGEA4-MH domain (unknown origin) expressed in Escherichia coli BL21-(DE3) by isothermal titration calorimetry
# T1 sequence (P43358 whole entry): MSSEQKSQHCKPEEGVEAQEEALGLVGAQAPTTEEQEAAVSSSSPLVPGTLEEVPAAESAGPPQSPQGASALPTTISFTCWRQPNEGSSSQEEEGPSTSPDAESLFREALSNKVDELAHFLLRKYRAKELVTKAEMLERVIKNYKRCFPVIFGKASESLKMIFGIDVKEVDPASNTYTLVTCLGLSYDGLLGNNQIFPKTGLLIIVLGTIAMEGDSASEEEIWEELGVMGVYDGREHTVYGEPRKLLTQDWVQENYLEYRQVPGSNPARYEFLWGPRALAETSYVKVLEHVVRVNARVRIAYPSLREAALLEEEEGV
# [2] = system: T2, Melanoma-associated antigen 4 (Homo sapiens), P43358 [V228A]; assay: Binding affinity to recombinant N-terminal His-tagged MAGEA4-MH domain V228A mutant (unknown origin) expressed in Escherichia coli BL21-(DE3) assessed as increase in thermal stability by SYPRO orange dye based differential scanning fluorimetry; conditions: dose <= 10.0 µM
# T2 sequence (whole entry): T1 sequence (P43358 whole entry) with V228A
# Homo sapiens = organism: Homo sapiens; assay: Inhibition of Eu-W1024 streptavidin-labeled 6 xHis-tagged MAGEA4-MH domain I205A mutant (unknown origin) expressed in Escherichia coli BL21-(DE3) interaction with Ulight-labeled GST-tagged RAD18 (unknown origin) (267 to 402 residues) at 1 uM by LANCE TR-FRET assay
# [3] = biological target: T1, Melanoma-associated antigen 4; assay: Binding affinity to MAGEA4 (unknown origin) expressed in Escherichia coli BL21-(DE3) by isothermal titration calorimetry
# NCI-H1299 [4] = assay: Inhibition of MAGEA4 in human NCI-H1299 cell lysate interaction with HA-tagged RAD18 (unknown origin) at 20 nM incubated for overnight by co-immunoprecipitation pull down assay; type: subcellular
# [5] = system: T3, Melanoma-associated antigen 4 (Homo sapiens), P43358 [D115R]; assay: Binding affinity to recombinant N-terminal His-tagged MAGEA4-MH domain D115R mutant (unknown origin) expressed in Escherichia coli BL21-(DE3) assessed as increase in thermal stability by SYPRO orange dye based differential scanning fluorimetry; conditions: dose <= 10.0 µM
# T3 sequence (whole entry): T1 sequence (P43358 whole entry) with D115R
# [6] = system: T4, Melanoma-associated antigen 4 (Homo sapiens), P43358 [M161A]; assay: Binding affinity to recombinant N-terminal His-tagged MAGEA4-MH domain M161A mutant (unknown origin) expressed in Escherichia coli BL21-(DE3) assessed as increase in thermal stability by SYPRO orange dye based differential scanning fluorimetry; conditions: dose 10.0 µM
# T4 sequence (whole entry): T1 sequence (P43358 whole entry) with M161A
# [7] = system: T5, Melanoma-associated antigen 4 (Homo sapiens), P43358 [M229A]; assay: Binding affinity to recombinant N-terminal His-tagged MAGEA4-MH domain M229A mutant (unknown origin) expressed in Escherichia coli BL21-(DE3) assessed as increase in thermal stability by SYPRO orange dye based differential scanning fluorimetry; conditions: dose <= 10.0 µM
# T5 sequence (whole entry): T1 sequence (P43358 whole entry) with M229A
# [8] = biological target: T6, Melanoma-associated antigen 4 (Homo sapiens) (UniProt P43358); assay: Binding affinity to recombinant N-terminal His-tagged MAGEA4-MH domain (unknown origin) expressed in Escherichia coli BL21-(DE3) assessed as protection in trypsin-induced MAGEA4 protein degradation incubated for 1 hr by proteolysis based SDS-PAGE analysis
# T6 sequence (whole entry): T1 sequence (P43358 whole entry)
# NCI-H1299 [9] = assay: Inhibition of MAGEA4 in human NCI-H1299 cell lysate interaction with HA-tagged RAD18 (unknown origin) at 1 uM incubated for overnight by co-immunoprecipitation pull down assay; type: subcellular
smiles,measurement,setting,value
CC[C@H](C)[C@@H]1NC(=O)[C@H](Cc2ccc(O)cc2)NC(=O)CSC[C@@H](C(N)=O)NC(=O)[C@H](CC(N)=O)NC(=O)[C@H](Cc2cnc[nH]2)NC(=O)[C@H](Cc2ccc(O)cc2)NC(=O)[C@H](CC(=O)O)NC(=O)[C@H](Cc2ccc(O)cc2)NC(=O)[C@H](CC(C)C)NC(=O)[C@H](CCCNC(=N)N)NC1=O ({CH2CO}-YIRLYDYHNC-NH2; thioether N-10),Kd,[1],9.7 nM
same,Tm,[2],< 3.5 °C
same,inhibition,Homo sapiens,Active
same,Kd,[3],36.8 nM
same,inhibition,NCI-H1299 [4],Active
same,Tm,[5],< 3.5 °C
same,Tm,[6],< 3.5 °C
same,Tm,[7],< 3.5 °C
same,Activity,[8],Active
same,inhibition,NCI-H1299 [9],Active
